The values that follow come from US20250382305A1 (PTC THERAPEUTICS, INC., priority 2022, published 2025).

Some results are limits rather than exact numbers.

Experiment [1] deals with ATXN3 pre-mRNA. In words: RT-qPCR Assay to Quantify Exon 4 Skipping in ATXN3 pre-mRNA in Cells. In kind it is cell-based. The note with it: percent exon 4 skipping in ATXN3 pre-mRNA, RT-qPCR of cell lysates; average IC50. The procedure, abridged: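 Cells plated at 10,000/well onto a 7-point, 3.16-fold DMSO dilution series (duplicates), incubated 24 h at 37 °C, then lysed. Exon 4 skipping measured by one-step RT-qPCR (48 °C RT, 40 cycles); IC50 interpolated from dose-response fit of percent skipping.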

The test system of experiment [2] is Total ATXN3 (tATXN3) protein. Nature of the experiment: Endogenous Total ATXN3 (tATXN3) Protein Assay (MSD immunoassay of cell lysates). The experiment is classed as cell-based. The note with it: average IC50, total ATXN3 protein in cell lysate after 48 h with compound (Table 1). The procedure, abridged:
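Cells in DMEM/10% FBS were plated at 10,000 per well onto 7-point, 3.16-fold compound dilutions in duplicate for 48 h at 37° C, then lysed. Total ATXN3 in lysates was measured by MSD sandwich immunoassay: mouse anti-ATXN3 capture, rabbit anti-ATXN3 detection, SULFO-TAG anti-rabbit. Average IC50 was reported in star bins.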

“2-((2R,3R,5R)-3-amino-5-methyltetrahydro-2H-pyran-2-yl)-3-bromo-5-chloro-N-(thiophen-2-ylmethyl)thieno[3,2-b]pyridin-7-amine and 2-((2S,3S,5S)-3-amino-5-methyltetrahydro-2H-pyran-2-yl)-3-bromo-5-chloro-N-(thiophen-2-ylmethyl)thieno[3,2-b]pyridin-7-amine [Compound 284]”: the IC50 in experiment [1] and in experiment [2] was 30 to 300 nM in each case.

`N[C@@H]1CC=CC[C@H]1c1sc2c(NCc3cccs3)nc(Cl)nc2c1I` [Compound 362, 6-((1R,6R)-6-aminocyclohex-3-en-1-yl)-2-chloro-7-iodo-N-(thiophen-2-ylmethyl)thieno[3,2-d]pyrimidin-4-amine]: the IC50 in experiment [1] and in experiment [2] was 30 to 300 nM in each case.

Take `CCc1c([C@H]2CCCCC[C@@H]2N)sc2c(NCc3cccs3)cc(Cl)nc12` (single isomer, unassigned) [Compound 87, 2-((1S,2S)-2-aminocycloheptyl)-5-chloro-3-ethyl-N-(thiophen-2-ylmethyl)thieno[3,2-b]pyridin-7-amine or 2-((1R,2R)-2-aminocycloheptyl)-5-chloro-3-ethyl-N-(thiophen-2-ylmethyl)thieno[3,2-b]pyridin-7-amine]: the IC50 in experiment [1] and in experiment [2] was 30 to 300 nM in each case.

With `N[C@@H]1CCCO[C@H]1c1c(Cl)c2nc(Cl)nc(NCc3cccs3)c2n1C(F)F` [Compound 423, 6-((2R,3R)-3-aminotetrahydro-2H-pyran-2-yl)-2,7-dichloro-5-(difluoromethyl)-N-(thiophen-2-ylmethyl)-5H-pyrrolo[3,2-d]pyrimidin-4-amine], the results for the IC50 in experiment [1] and in experiment [2] were not above 30 nM and 30 to 300 nM, respectively.

Consider `N[C@@H]1CCCO[C@H]1c1c(Cl)c2nc(Cl)nc(NCc3cccs3)c2n1C(F)F.N[C@H]1CCCO[C@@H]1c1c(Cl)c2nc(Cl)nc(NCc3cccs3)c2n1C(F)F` (mixture of isomers) [Compound 346, 6-((2S,3S)-3-aminotetrahydro-2H-pyran-2-yl)-2,7-dichloro-5-(difluoromethyl)-N-(thiophen-2-ylmethyl)-5H-pyrrolo[3,2-d]pyrimidin-4-amine and 6-((2R,3R)-3-aminotetrahydro-2H-pyran-2-yl)-2,7-dichloro-5-(difluoromethyl)-N-(thiophen-2-ylmethyl)-5H-pyrrolo[3,2-d]pyrimidin-4-amine], for which the IC50 in experiment [1] and in experiment [2] was 30 to 300 nM each time.

As to `CC#CCNc1cc(Cl)nc2c(Cl)c([C@H]3CC=CC[C@@H]3N)sc12` [Compound 250, 2-((1S,6S)-6-aminocyclohex-3-en-1-yl)-N-(but-2-yn-1-yl)-3,5-dichlorothieno[3,2-b]pyridin-7-amine], the IC50 in experiment [1] and in experiment [2] was 30 to 300 nM in each case.

In the case of `Cc1c([C@@H]2CCC[C@H]2N)sc2c(NCc3ccccc3)cc(Cl)nc12` [Compound 160, 2-((1R,2R)-2-aminocyclopentyl)-N-benzyl-5-chloro-3-methylthieno[3,2-b]pyridin-7-amine], the IC50 in experiment [1] and in experiment [2] was more than 1000 nM in each case.

As for “2-((1R,2R)-2-aminocyclohexyl)-3,5-dichloro-1-(difluoromethyl)-N-(thiophen-2-ylmethyl)-1H-pyrrolo[3,2-b]pyridin-7-amine and 2-((1S,2S)-2-aminocyclohexyl)-3,5-dichloro-1-(difluoromethyl)-N-(thiophen-2-ylmethyl)-1H-pyrrolo[3,2-b]pyridin-7-amine [Compound 421]”, the IC50 in experiment [1] and in experiment [2] was not above 30 nM throughout.

`N[C@H]1CCCC[C@@H]1c1sc2c(NCc3ccco3)cc(Cl)nc2c1Cl` [Compound 173, 2-((1S,2S)-2-aminocyclohexyl)-3,5-dichloro-N-(furan-2-ylmethyl)thieno[3,2-b]pyridin-7-amine]: the IC50 in experiment [1] and in experiment [2] was not above 30 nM in each case.

Consider “2-((1R,6S)-6-amino-2,2-difluorocyclohexyl)-3-bromo-5-chloro-N-(thiophen-2-ylmethyl)thieno[3,2-b]pyridin-7-amine and 2-((1S,6R)-6-amino-2,2-difluorocyclohexyl)-3-bromo-5-chloro-N-(thiophen-2-ylmethyl)thieno[3,2-b]pyridin-7-amine [Compound 269]”, for which the IC50 in experiment [1] and in experiment [2] was 30 to 300 nM in each case.

In the case of `N[C@H]1CCCC[C@@H]1c1sc2c(NCc3ccncc3)cc(Cl)nc2c1Br` [Compound 197, 2-((1S,2S)-2-aminocyclohexyl)-3-bromo-5-chloro-N-(pyridin-4-ylmethyl)thieno[3,2-b]pyridin-7-amine], the IC50 in experiment [1] and in experiment [2] was not above 30 nM in each case.

Consider “2-((3R,4S)-3-aminotetrahydro-2H-pyran-4-yl)-5-chloro-3-iodo-N-(thiophen-2-ylmethyl)thieno[3,2-b]pyridin-7-amine and 2-((3S,4R)-3-aminotetrahydro-2H-pyran-4-yl)-5-chloro-3-iodo-N-(thiophen-2-ylmethyl)thieno[3,2-b]pyridin-7-amine [Compound 275]”, for which the IC50 in experiment [1] and in experiment [2] was 30 to 300 nM each time.

Turning to `Cc1c([C@H]2OCCC[C@@H]2N)sc2c(NCc3ccco3)cc(Cl)nc12` [Compound 133, 2-((2S,3S)-3-aminotetrahydro-2H-pyran-2-yl)-5-chloro-N-(furan-2-ylmethyl)-3-methylthieno[3,2-b]pyridin-7-amine], the IC50 was not above 30 nM in experiment [1] and 30 to 300 nM in experiment [2].

As to `Cc1c([C@@H]2OCCC[C@H]2N)sc2c(NCc3cccs3)cc(Cl)nc12` (single isomer, unassigned) [Compound 45, 2-((2R,3R)-3-aminotetrahydro-2H-pyran-2-yl)-5-chloro-3-methyl-N-(thiophen-2-ylmethyl)thieno[3,2-b]pyridin-7-amine or 2-((2S,3S)-3-aminotetrahydro-2H-pyran-2-yl)-5-chloro-3-methyl-N-(thiophen-2-ylmethyl)thieno[3,2-b]pyridin-7-amine], the half-inhibitory concentration (IC50) in experiment [1] and in experiment [2] was not above 30 nM in each case.

As for `Cc1c([C@@H]2CC=CC[C@H]2N)sc2c(NCc3ccco3)cc(Cl)nc12` [Compound 382, 2-((1R,6R)-6-aminocyclohex-3-en-1-yl)-5-chloro-N-(furan-2-ylmethyl)-3-methylthieno[3,2-b]pyridin-7-amine], the IC50 in experiment [1] and in experiment [2] was 30 to 300 nM each time.

`N[C@H]1CCCCCC[C@@H]1c1cc2nc(Cl)cc(NCc3cccs3)c2s1` [Compound 103, 2-((1S,2S)-2-aminocyclooctyl)-5-chloro-N-(thiophen-2-ylmethyl)thieno[3,2-b]pyridin-7-amine]: the IC50 in experiment [1] and in experiment [2] was more than 1000 nM each time.

Consider `N[C@@H]1CCC[C@H]1c1sc2c(NCc3cccs3)cc(Cl)nc2c1Br` [Compound 7, 2-((1R,2R)-2-aminocyclopentyl)-3-bromo-5-chloro-N-(thiophen-2-ylmethyl)thieno[3,2-b]pyridin-7-amine], for which the IC50 in experiment [1] and in experiment [2] was 300 to 1000 nM in each case.

Regarding `N[C@@H]1CC=CC[C@H]1c1sc2c(NCc3ccccc3F)cc(Cl)nc2c1Br` [Compound 411, 2-((1R,6R)-6-aminocyclohex-3-en-1-yl)-3-bromo-5-chloro-N-(2-fluorobenzyl)thieno[3,2-b]pyridin-7-amine], the IC50 in experiment [1] and in experiment [2] was 30 to 300 nM each time.

For `Cc1c([C@@H]2CC=CC[C@H]2N)n(C(F)F)c2c(NCc3ccco3)nc(Cl)nc12.Cc1c([C@H]2CC=CC[C@@H]2N)n(C(F)F)c2c(NCc3ccco3)nc(Cl)nc12` (mixture of isomers) [Compound 358, 6-((1R,6R)-6-aminocyclohex-3-en-1-yl)-2-chloro-5-(difluoromethyl)-N-(furan-2-ylmethyl)-7-methyl-5H-pyrrolo[3,2-d]pyrimidin-4-amine and 6-((1S,6S)-6-aminocyclohex-3-en-1-yl)-2-chloro-5-(difluoromethyl)-N-(furan-2-ylmethyl)-7-methyl-5H-pyrrolo[3,2-d]pyrimidin-4-amine], the IC50 in experiment [1] and in experiment [2] was 30 to 300 nM in each case.

Consider `N[C@@H]1CC=CC[C@H]1c1sc2c(NCc3ccco3)cc(Cl)nc2c1I` [Compound 327, 2-((1R,6R)-6-aminocyclohex-3-en-1-yl)-5-chloro-N-(furan-2-ylmethyl)-3-iodothieno[3,2-b]pyridin-7-amine], for which the IC50 in experiment [1] and in experiment [2] was 30 to 300 nM in each case.

Turning to `N[C@H]1CC=CC[C@@H]1c1sc2c(NCc3ccco3)cc(Cl)nc2c1Cl` [Compound 169, 2-((1S,6S)-6-aminocyclohex-3-en-1-yl)-3,5-dichloro-N-(furan-2-ylmethyl)thieno[3,2-b]pyridin-7-amine], the IC50 in experiment [1] and in experiment [2] was not above 30 nM in each case.

Regarding `Cc1c([C@H]2CC=CC[C@@H]2N)sc2c(NCc3ccncc3F)nc(Cl)nc12` [Compound 253, 6-((1S,6S)-6-aminocyclohex-3-en-1-yl)-2-chloro-N-((3-fluoropyridin-4-yl)methyl)-7-methylthieno[3,2-d]pyrimidin-4-amine], the figures for the IC50 in experiment [1] and in experiment [2] were not above 30 nM and 30 to 300 nM, respectively.

For `N[C@@H]1CCCC[C@H]1c1sc2c(NCc3cccs3)cc(Cl)nc2c1I` [Compound 58, 2-((1R,2R)-2-aminocyclohexyl)-5-chloro-3-iodo-N-(thiophen-2-ylmethyl)thieno[3,2-b]pyridin-7-amine], the IC50 in experiment [1] and in experiment [2] was more than 1000 nM throughout.

Regarding `N[C@H]1CCCCC[C@@H]1c1sc2c(NCc3cccs3)cc(Cl)nc2c1Cl` [Compound 79, 2-((1S,2S)-2-aminocycloheptyl)-3,5-dichloro-N-(thiophen-2-ylmethyl)thieno[3,2-b]pyridin-7-amine], the IC50 in experiment [1] and in experiment [2] was 30 to 300 nM in each case.
